Assay [1] has as its target T1, human HIF-PHD2 (Homo sapiens, UniProt Q9GZT9).
T1 construct: purchased CrystalGenomics Ltd
In words: HIF-PHD inhibition assay (fluorescence polarization), human HIF-PHD2. In kind it is biochemical. As to conditions: 2-oxoglutaric acid 3.33 μmol/L. The method in brief:
(§1)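 Fluorescence polarization was read before and after adding enzyme, and the difference (mP value) taken as enzyme activity. The tracer carried a FAM (5′-fluoresceinamide) tag linked via aminocaproic acid.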
In general terms: Polarisation of emitted light reports the rotation of a fluorescent probe.

For assay [2], the target named is T2, human HIF-PHD3 (Homo sapiens, UniProt Q9H6Z9).
T2 construct: purchased CrystalGenomics Ltd
The assay can be described thus: HIF-PHD inhibition assay (fluorescence polarization), human HIF-PHD3. In kind it is biochemical. As to conditions: 2-oxoglutaric acid 166 μmol/L. The method in brief: as §1

In assay [3] the test system is Hep3B cells. The assay can be described thus: EPO production assay (ELISA of culture supernatant). As to conditions: Homo sapiens, 3 μmol/L test compound, 48 hours, relative to control (0.1% DMSO), read-out: EPO production stimulation rate with 3 μmol/L test compound. In kind it is cell-based. The method in brief:
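Hep3B cells (40000/well) switched to MEM with 0.5% FBS and treated with compound (0.1% DMSO) for 48 h at 37 °C. Supernatant EPO measured by ELISA; value is fold stimulation at 3 μmol/L compound over unstimulated control.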
In general terms: An ELISA detects its analyte on a solid surface through an enzyme-linked reagent.

T2 sequence (Q9H6Z9 whole entry): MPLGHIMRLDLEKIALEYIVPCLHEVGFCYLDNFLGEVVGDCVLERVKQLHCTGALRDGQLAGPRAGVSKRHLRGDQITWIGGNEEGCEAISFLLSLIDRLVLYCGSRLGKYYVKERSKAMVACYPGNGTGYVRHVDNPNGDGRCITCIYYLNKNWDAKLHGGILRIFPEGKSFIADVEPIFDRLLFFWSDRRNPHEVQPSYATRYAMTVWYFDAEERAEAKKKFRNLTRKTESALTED
T1 sequence (Q9GZT9 2-426 limits assumed): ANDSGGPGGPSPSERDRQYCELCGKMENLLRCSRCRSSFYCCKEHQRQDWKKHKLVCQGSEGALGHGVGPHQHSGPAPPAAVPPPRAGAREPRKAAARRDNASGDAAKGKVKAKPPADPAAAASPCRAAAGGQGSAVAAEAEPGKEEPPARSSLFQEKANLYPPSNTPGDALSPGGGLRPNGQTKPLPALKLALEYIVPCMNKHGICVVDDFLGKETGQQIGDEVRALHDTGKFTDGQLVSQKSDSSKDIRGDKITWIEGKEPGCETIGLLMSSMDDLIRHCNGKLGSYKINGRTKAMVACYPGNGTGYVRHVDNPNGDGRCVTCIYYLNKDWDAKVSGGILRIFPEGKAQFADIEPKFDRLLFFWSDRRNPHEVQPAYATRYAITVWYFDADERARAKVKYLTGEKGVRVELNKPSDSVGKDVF

In general, IC50 refers to the concentration that gives 50% inhibition. A low value points to inhibition by little substance. Turning to `Cc1ccc(C(C(C)C)n2ncc3nc(-n4cc(C(=O)O)cn4)nc(O)c32)cc1` (stereo not drawn) [Example 25], the IC50 in assay [1] was 70 nM; in assay [2] it was 2900 nM. Besides, in assay [3], the fold induction at 3 µM worked out at 2.9.

`O=C(O)c1cnn(-c2nc(O)c3c(cnn3CCCOc3ccc4c(c3C3CC3)CCCC4)n2)c1` [Example 191]: the IC50 in assay [1] turned out to be 130 nM; in assay [2], 540 nM. Also, the fold induction at 3 µM in assay [3] worked out at 1.6.

For `C[C@@H](c1ccc(C(F)(F)F)cc1)n1ncc2nc(-n3cc(C(=O)O)cn3)nc(O)c21` [Example 19], the results for the IC50 in assay [1] and in assay [2] were 26 nM and 720 nM, respectively. Moreover, in assay [3], the fold induction at 3 µM was 10.

In the case of `Cc1cccc(-c2ccc(Cn3ncc4nc(-n5cc(C(=O)O)cn5)nc(O)c43)cc2)c1` [Example 64], the values for the IC50 in assay [1] and in assay [2] were 18 nM and 66 nM, respectively. The fold induction at 3 µM in assay [3] is 23.

As to `O=C(O)c1cnn(-c2nc(O)c3c(cnn3C(c3ccc(Cl)cc3)c3ccc(Cl)cc3)n2)c1` [Example 27], the IC50 in assay [1] came to 20 nM; in assay [2], 2600 nM. Further, in assay [3], the fold induction at 3 µM is 26.

Consider `CC(C)[C@H]1CC[C@H](Cn2ncc3nc(-n4cc(C(=O)O)cn4)nc(O)c32)CC1` [Example 141], for which the results for the IC50 in assay [1] and in assay [2] were 14 nM and 270 nM, respectively. Also, the fold induction at 3 µM in assay [3] is 1.2.

Turning to `O=C(O)c1cnn(-c2nc(O)c3c(cnn3CCCc3ccc4ccccc4c3)n2)c1` [Example 131], the IC50 amounted to 72 nM in assay [1] and 700 nM in assay [2]. Moreover, the fold induction at 3 µM in assay [3] came out at 8.6.

On to `CC(C)(Cn1ncc2nc(-n3cc(C(=O)O)cn3)nc(O)c21)Oc1ccc(Cl)cc1` [Example 210], for which the values for the IC50 in assay [1] and in assay [2] were 21 nM and 220 nM, respectively. Also, in assay [3], the fold induction at 3 µM turned out to be 19.

With `Cc1nn(Cc2ccc(C(F)(F)F)cc2)c2c(O)nc(-n3cc(C(=O)O)cn3)nc12` [Example 444], the results for the IC50 in assay [1] and in assay [2] were 37 nM and 360 nM, respectively. Moreover, the fold induction at 3 µM in assay [3] worked out at 2.2.

As for `O=C(O)c1cnn(-c2nc(O)c3c(cnn3C3CCCCC3)n2)c1` [Example 135], the IC50 in assay [1] was 74 nM; in assay [2] it was 380 nM. In addition, the fold induction at 3 µM in assay [3] was 6.1.

For the compound `O=C(O)c1cnn(-c2nc(O)c3c(cnn3Cc3ccc(Cl)cc3)n2)c1` [Example 13], the IC50 was 20 nM in assay [1] and 230 nM in assay [2]. The fold induction at 3 µM in assay [3] was determined as 4.3.

For `O=C(O)c1cnn(-c2nc(O)c3c(cnn3Cc3c(F)cc(-c4ccccc4)cc3F)n2)c1` [Example 79], the figures for the IC50 in assay [1] and in assay [2] were 16 nM and 200 nM, respectively. The fold induction at 3 µM in assay [3] is 14.

As to `O=C(O)c1cnn(-c2nc(O)c3c(n2)c(Cl)nn3CC2CCCCC2)c1` [Example 222], the IC50 in assay [1] is 48 nM; in assay [2], 450 nM. Moreover, the fold induction at 3 µM in assay [3] came to 1.5.

As to `C[C@H](c1ccc(-c2ccccc2F)cc1)n1ncc2nc(-n3cc(C(=O)O)cn3)nc(O)c21` [Example 111], the figures for the IC50 in assay [1] and in assay [2] were 25 nM and > 1000 nM, respectively. Further, the fold induction at 3 µM in assay [3] stood at 36.

Consider `C[C@H](c1ccc2ccccc2c1)n1ncc2nc(-n3cc(C(=O)O)cn3)nc(O)c21` [Example 30], for which the figures for the IC50 in assay [1] and in assay [2] were 72 nM and 460 nM, respectively. In addition, in assay [3], the fold induction at 3 µM is 5.5.

For the compound `C[C@@H](C1CCCCC1)n1ncc2nc(-n3cc(C(=O)O)cn3)nc(O)c21` [Example 144], the IC50 turned out to be 15 nM in assay [1] and 1300 nM in assay [2]. For the same compound, the fold induction at 3 µM in assay [3] came out at 4.3.

In the case of `CC1(C)CCC(Cn2ncc3nc(-n4cc(C(=O)O)cn4)nc(O)c32)CC1` [Example 380], the IC50 was 20 nM in assay [1] and 400 nM in assay [2]. The fold induction at 3 µM in assay [3] was 3.9.

For `O=C(O)c1cnn(-c2nc(O)c3nn(Cc4ccc(-c5ccccc5)cc4F)cc3n2)c1` [Example 245], the IC50 in assay [1] is 2.3 nM; in assay [2] it was 68 nM. Moreover, the fold induction at 3 µM in assay [3] was found to be 6.2.

For `O=C(O)c1cnn(-c2nc(O)c3c(cnn3CCCC3CCCCC3)n2)c1` [Example 161], the IC50 turned out to be 31 nM in assay [1] and 150 nM in assay [2]. Further, in assay [3], the fold induction at 3 µM was determined as 3.1.

Consider `Cc1c(Cn2ncc3nc(-n4cc(C(=O)O)cn4)nc(O)c32)ccc2ccccc12` [Example 35], for which the IC50 in assay [1] came out at 18 nM; in assay [2], 250 nM. The fold induction at 3 µM in assay [3] was 5.7.

With `CC[C@@H](c1ccccc1)n1ncc2nc(-n3cc(C(=O)O)cn3)nc(O)c21` [Example 24], the IC50 in assay [1] turned out to be 44 nM; in assay [2], 990 nM. The fold induction at 3 µM in assay [3] came to 2.8.

Regarding `O=C(O)c1cnn(-c2nc(O)c3c(cnn3CCCOc3cccc4c3CCCC4)n2)c1` [Example 193], the IC50 in assay [1] stood at 85 nM; in assay [2], 190 nM. Besides, the fold induction at 3 µM in assay [3] was 9.8.

For `C[C@@H](c1ccc(F)cc1)n1ncc2nc(-n3cc(C(=O)O)cn3)nc(O)c21` [Example 18], the IC50 was found to be 35 nM in assay [1] and 450 nM in assay [2]. The fold induction at 3 µM in assay [3] worked out at 5.6.

As for `O=C(O)c1cnn(-c2nc(O)c3c(cnn3Cc3cccc(OC(F)(F)F)c3)n2)c1` [Example 11], the figures for the IC50 in assay [1] and in assay [2] were 62 nM and 470 nM, respectively. The fold induction at 3 µM in assay [3] is 2.5.

On to `O=C(O)c1cnn(-c2nc(O)c3c(n2)c(C2CC2)nn3CC2CCCCC2)c1` [Example 234], for which the IC50 in assay [1] came to 91 nM; in assay [2], 660 nM. Moreover, the fold induction at 3 µM in assay [3] came to 5.7.

Regarding `O=C(O)c1cnn(-c2nc(O)c3c(cnn3Cc3ccc(-c4ccccc4OC(F)(F)F)cc3F)n2)c1` [Example 86], the IC50 in assay [1] is 21 nM; in assay [2] it was 330 nM. In addition, in assay [3], the fold induction at 3 µM was found to be 2.5.

For `O=C(O)c1cnn(-c2nc(O)c3c(cnn3CCC3CCN(c4ccc(C(F)(F)F)cc4)CC3)n2)c1` [Example 172], the IC50 in assay [1] is 34 nM; in assay [2], 250 nM. In addition, in assay [3], the fold induction at 3 µM came out at 19.

Regarding `O=C(O)c1cnn(-c2nc(O)c3c(cnn3CCCOc3ccc(OCc4ccccc4)c(F)c3)n2)c1` [Example 181], the results for the IC50 in assay [1] and in assay [2] were 35 nM and 220 nM, respectively. In addition, the fold induction at 3 µM in assay [3] came to 34.

As for `O=C(O)c1cnn(-c2nc(O)c3c(cnn3CCCOc3cc(C(F)(F)F)cc(C(F)(F)F)c3)n2)c1` [Example 183], the IC50 was determined as 63 nM in assay [1] and 340 nM in assay [2]. The fold induction at 3 µM in assay [3] was determined as 7.5.

Take `CC(C)(Cn1ncc2nc(-n3cc(C(=O)O)cn3)nc(O)c21)Oc1ccc2ccccc2c1` [Example 213]: the IC50 was found to be 17 nM in assay [1] and 110 nM in assay [2]. The fold induction at 3 µM in assay [3] amounted to 6.4.

Consider `O=C(O)c1cnn(-c2nc(O)c3c(cnn3C[C@H]3CC[C@H](Oc4cccc(F)c4)CC3)n2)c1` [Example 148], for which the values for the IC50 in assay [1] and in assay [2] were 10 nM and 250 nM, respectively. In assay [3], the fold induction at 3 µM came out at 11.

With `O=C(O)c1cnn(-c2nc(O)c3c(cnn3Cc3ccc(-c4ccc(F)cc4F)nc3)n2)c1` [Example 104], the figures for the IC50 in assay [1] and in assay [2] were 10 nM and 110 nM, respectively. Also, the fold induction at 3 µM in assay [3] is 5.4.

With `Cc1ccccc1-c1ccc(Cn2ncc3nc(-n4cc(C(=O)O)cn4)nc(O)c32)cc1` [Example 57], the IC50 is 15 nM in assay [1] and 130 nM in assay [2]. In addition, the fold induction at 3 µM in assay [3] came out at 9.1.

As to `O=C(O)c1cnn(-c2nc(O)c3c(cnn3CCOc3ccc4ccccc4c3)n2)c1` [Example 207], the figures for the IC50 in assay [1] and in assay [2] were 13 nM and 160 nM, respectively. Moreover, in assay [3], the fold induction at 3 µM amounted to 2.5.

For the compound `O=C(O)c1cnn(-c2nc(O)c3c(cnn3Cc3cccc(-c4cccc(F)c4)c3)n2)c1` [Example 44], the IC50 in assay [1] amounted to 49 nM; in assay [2], 390 nM. For the same compound, the fold induction at 3 µM in assay [3] is 4.9.

With `O=C(O)c1cnn(-c2nc(O)c3c(n2)c(Cl)nn3CC2CCCCCC2)c1` [Example 226], the IC50 in assay [1] was found to be 47 nM; in assay [2] it was 1400 nM. Moreover, the fold induction at 3 µM in assay [3] was 2.2.

With `COc1cccc(Cl)c1-c1ccc(Cn2ncc3nc(-n4cc(C(=O)O)cn4)nc(O)c32)cc1` [Example 69], the IC50 in assay [1] was 13 nM; in assay [2] it was 110 nM. Also, the fold induction at 3 µM in assay [3] stood at 7.8.

In the case of `Cc1c(CCn2ncc3nc(-n4cc(C(=O)O)cn4)nc(O)c32)ccc2ccccc12` [Example 126], the results for the IC50 in assay [1] and in assay [2] were 51 nM and 420 nM, respectively. Further, the fold induction at 3 µM in assay [3] was 5.2.

Regarding `COc1ccccc1-c1ccc(Cn2ncc3nc(-n4cc(C(=O)O)cn4)nc(O)c32)cc1OC` [Example 99], the figures for the IC50 in assay [1] and in assay [2] were 37 nM and 200 nM, respectively. Further, in assay [3], the fold induction at 3 µM was 3.1.

On to `O=C(O)c1cnn(-c2nc(O)c3c(cnn3Cc3cccc(-c4cccc(C(F)(F)F)c4)c3)n2)c1` [Example 45], for which the IC50 in assay [1] was determined as 50 nM; in assay [2], 170 nM. In assay [3], the fold induction at 3 µM was determined as 8.9.

`O=C(O)c1cnn(-c2nc(O)c3c(cnn3C[C@H]3CC[C@@H](Oc4ccccc4F)CC3)n2)c1` [Example 147]: the results for the IC50 in assay [1] and in assay [2] were 5.3 nM and 330 nM, respectively. Besides, the fold induction at 3 µM in assay [3] stood at 4.

As for `O=C(O)c1cnn(-c2nc(O)c3c(cnn3CCCOc3ccc(-c4ccccc4)cc3)n2)c1` [Example 196], the IC50 in assay [1] is 20 nM; in assay [2] it was 300 nM. Moreover, in assay [3], the fold induction at 3 µM came to 25.

These data come from patent US20150239889A1, “PYRAZOLOPYRIMIDINE COMPOUND” (MITSUBISHI TANABE PHARMA CORPORATION, priority 2012, published 2015).
